The subject of experiment [1] is EAE mice. In words: EAE mice, spinal cord pathological sections (H&E, LFB, MBP staining). The experiment is classed as in vivo. Particulars: for demyelination of white matter of spinal cord (LFB) / infiltration of spinal cord inflammatory cells (H&E): day 20 p.i., EA lumbosacral, URA cervical enlargement of spinal cord.
Experiment [2] deals with Th17 cells. In words: Th17 polarization of spleen cells in vitro, flow cytometry. In kind it is cell-based, mice. As to conditions: for polarization of Th17 cells: 3 days; for polarization of Th17 cells / Th1 cells (IFN-γ): flow cytometry; for inhibitory effect on Th17 / IL17 at 5 μM compared with the lower concentration: 5 μM vs 2.5 μM (EA) or 1 μM (URA). As to the method: (§1) Single-cell suspension of spleen isolated from normal female C57BL/6 mice (aged 8-10 weeks) was co-cultured with anti-CD3 (0.5 μg/mL), anti-CD28 (1 μg/mL), TGF-β (2 ng/mL), IL-6 (20 ng/mL), IL-1 β (10 ng/mL), anti-IL-4 (10 μg/mL) and anti-IFN-γ (10 μg/mL) for 3 days to induce differentiation into Th17 cells. Cells were cultured with anti-CD3 (0.5 μg/mL), anti-CD28 (1 μg/mL), TGF-β (2 ng/mL) and IL-2 (10 ng/ml) for 3 days to induce differentiation into Treg cells. Cytokines were detected by flow cytometry.
In general terms: A flow cytometer gives signals particle by particle.

Experiment [3] has as its system NMO-IgG induced cerebral lesion in mice. In words: NMO-IgG induced cerebral lesion in mice, AQP4 and MBP staining of brain slices. The experiment is classed as in vivo. Particulars: 2 mg/kg/d from three days before surgery; fifth day of modeling. From the text: Female C57BL/6 mice aged 6-8 weeks were purchased from Air Force Military Medical University (Xi'an, China). Mice were fed under standard light and temperature conditions. All experimental procedures and protocols were approved by the institutional animal ethics Committee of Shaanxi Normal University and carried out in accordance with the approved institutional guidelines and regulations.
WO mice were randomly divided into control group and EA group. In order to induce WO, mice were first anesthetized with 10% (w/v) of chloral hydrate and installed on a brain stereotactic apparatus (RWD Life Science), then the mouse scalp was cut along the midline, a small hole with a diameter of 1 mm was drilled on the skull 2 mm on the right side of the anterior fontanelle, and finally 5 μL microinjector (Hamilton) was inserted 3 mm deep and 2 μL of NMO-IgG and 3 μL of complement were injected at a rate of 1 μL/min. EA (2 mg/kg/d) and control solvents were administered to WO mice three days before surgery.
The mice were sacrificed on the fifth day of modeling. The brain tissue was removed from the mice and fixed in 4% (w/v) of paraformaldehyde. The frozen sections were stained with AQP4 and MBP.

The test system of experiment [4] is EAE mice. In words: EAE mice, CNS-infiltrating mononuclear cells by flow cytometry. In kind it is in vivo. As to the method:
EAE mice were randomly divided into EA groups and URA groups. EA groups were divided into blank control group, fingolimod (FTY-720) positive control group (0.1 mg/kg) and EA administration group (0.1 mg/kg). URA groups were divided into blank control group and URA administration group (25 mg/kg). To induce EAE, mice were immunized at two sites on the back with 200 μg of myelin oligodendrocyte glycoprotein peptide 35-55 (MOG35-55) (Genescript) in 200 μL of emulsion containing 50% complete Freund's adjuvant with 5 mg/ml Mycobacterium tuberculosis H37Ra (Difco). All mice were i.p. injected with 200 ng pertussis toxin (Sigma-Aldrich) in PBS on days 0 and 2 postimmunization (p.i.). Ellagic acid (EA) and its metabolic derivative URA were purchased from Ark Pharm, Inc and respectively administered to EAE mice on the day of immunization, the 11th day p.i and the 17th day p.i.
Mice were sacrificed at day 20 p.i. Approximately 0.5 cm of the lumbosacral enlarged spinal cord was removed from the sacrificed mouse and fixed in 4% (w/v) paraformaldehyde. […]
For flow cytometry surface marker staining, the cells were incubated with surface-stained fluorescent microsphere-coupled antibodies or isotype control antibodies on ice for 30 min. […] Data were further detected by flow cytometry and analyzed by Flowjo software (Treestar, Ashland, OR).

The test system of experiment [5] is Th1, Th17 and Treg cells in the peripheral immune system. In words: Skin transplantation model, spleen cells of receptor mice by flow cytometry. In kind it is in vivo. As to conditions: day 7, cultured 72 hours. As to the method:
(§2) The donor BALB/c mice were sacrificed, the dorsal hair was removed with a shaver. Appropriately sized skin grafts were cut, peeled off, washed, immersed in sterilized saline containing antibiotics for 5 minutes, and finally stored on ice for backup. The receptor C57BL/6 mice were intraperitoneally injected with 0.5% of pentobarbital sodium injection according to the body weight of 0.15 mL/20 g. After the mice were anesthetized, they were fixed on a surgical plate, the mid-dorsal parts of the mice body slightly to the lefts were selected as operation areas. Mice were shaved and disinfected with 75% alcohol to prepare graft beds. The prepared donor skin sheet was placed on the predetermined transplantation bed of recipient mice and then flattened. The skin patch was sutured to the transplant bed by discontinuous suture with 6-0 sutures. The recipient mice were administered therapeutic medicines from the day of surgery. […] The spleens of the receptor mice were taken on the 7th day to isolate single cells for flow cytometer detection. The supernatant of splenocytes was collected for enzyme-linked immunosorbent assay (ELISA).

Experiment [6] has as its system IFN-γ and IL-17. In words: Skin transplantation model, ELISA of splenocyte culture supernatant. The experiment is classed as in vivo, mice. As to the method: as §2
(An ELISA detects its analyte on a solid surface through an enzyme-linked reagent.)

Experiment [7] deals with Treg cells. In words: Treg polarization in vitro, flow cytometry. The experiment is classed as cell-based, mice. As to conditions: 0.5-2 μM, 3 days. As to the method: as §1
For experiment [8], the system named is skin transplantation model. In words: Skin transplantation model, H&E staining of skin grafts. In kind it is in vivo. As to conditions: BALB/c skin on C57BL/6 mice.
Experiment [9] relates to colitis mice. In words: DSS-induced acute colitis in mice. In kind it is in vivo. Particulars: 100 mg/kg/d, 2.5% DSS 7 days. As to the method:
The mice were randomly divided into control group and EA treatment group. 2.5% (w/v) of dextran sodium sulfate (DSS) was added to drinking water continuously for 7 days to induce acute colitis, and mice in the treatment group were fed 100 mg/kg/d EA. During the experiment, mice were weighed regularly every day and the percentage change was calculated. In addition, the feces characteristics of mice were observed every day and divided into three grades according to the methods of Berberat et al. 1: normal, 2: increased stool viscosity and easily dispersed, 3: watery diarrhea. Moreover, hidden blood of mouse feces was measured by pyramidon method. If the mouse feces contained reddish-brown or bright red blood visible to the naked eye, it was determined as fecal blood. Finally, the disease activity index (DAI) of mice was calculated according to the scoring criteria of Berberat et al. The whole segment of colon from anus to the end of cecum of mice was taken, the length was measured and photographed for recording.

The test system of experiment [10] is EAE mice. In words: EAE mice, clinical scores. In kind it is in vivo. As to conditions: for EAE clinical score / course of disease: administered from day 0 of immunization (prevention stage); for EAE clinical score / course of disease / EAE clinical score / development of EAE: EA intraperitoneally, URA 25 mg/kg.
Experiment [11] relates to IL-17 family-related genes. In words: RT-qPCR of Th17-related genes in naïve CD4+ T cells under Th17 polarizing conditions. Particulars: 4 h, vs PBS. The experiment is classed as cell-based, mice. As to the method: Total RNA was extracted by using RNAprep Pure Cell/Tissue Kit (TIANGEN) and then reverse transcribed with Hiscript QRT Supermix (Vazyme) according to the manufacturer's instructions. mRNA expression was determined by real-time quantitative PCR using 2×ChamQ™ SYBR® qPCR Master Mix (Vazyme). Data was quantitatively analyzed on Roche Molecular Biochemicals Light Cycler Software Version 3.5. Mouse GAPDH gene was used as endogenous control for sample normalization.

[12] abbreviates: administered from onset stage (day 11 p.i.).
Setting [13] is: administered from peak period (day 17 p.i.).

For `O=c1oc2c(O)c(O)cc3c(=O)oc4c(O)c(O)cc1c4c23` [EA, ellagic acid], in experiment [1], the “demyelination of white matter of spinal cord (LFB)” value is recorded as “significantly attenuated” and the “infiltration of spinal cord inflammatory cells (H&E)” value is “significantly attenuated”. Besides, the “polarization of Th17 cells” value in experiment [2] (2.5 μM) is “significantly inhibited”. Moreover, the “inhibitory effect on Th17 / IL17 at 5 μM compared with the lower concentration” value in experiment [2] is given as “better”. Moreover, the “polarization of Th17 cells” value in experiment [2] (5 μM) is “significantly inhibited”. Besides, in [3], the “AQP4 protein loss rate” value was “lower than that in control group” and the “degree of demyelination (MBP)” value is “decreased”. For the same molecule, in experiment [4], the “absolute number of CD45+, CD45+CD4+, CD4+IL-17+, CD4+IFN-γ+ and CD4+GM-CSF+ cells infiltrating into the CNS” value was “significantly reduced”; the “absolute number of pro-inflammatory microglia and macrophages infiltrating into CNS (CD45high+CD11b+, CD45low+CD11b+, CD11b+MHC II+, CD11b+TNF-α+, CD11b+Nos2+)” value is reported as “decreased”. Further, in experiment [5], the Th1 inflammatory cells result is reported as “significantly inhibited”, the Th17 inflammatory cells result is “significantly inhibited” and the “proportion of anti-inflammatory cell Treg” value is recorded as “increased”. Besides, in experiment [6], the “content of IFN-γ in supernatant of splenocytes” value is “significantly reduced”; the “content of IL-17 in supernatant of splenocytes” value is listed as “significantly reduced”; the “effect on IFN-γ and IL-17 content compared with CsA” value was “better than that of CsA”. Moreover, in experiment [7], the “polarization of naïve CD4+T towards Treg” value is “promote the polarization of naïve CD4+T towards Treg in a dose-dependent manner”. In addition, the “infiltration of inflammatory cells in the grafted skin” value in experiment [8] is listed as “significantly inhibited”. Further, in experiment [9], the colon length entry is “significantly restored”. In experiment [9] (vs DSS control group), the DAI score result is “decreased significantly” and the “percentage of weight loss” value is “significantly lower”. The “therapeutic effect in EAE compared with fingolimod (FTY-720)” value in experiment [10] (EA 0.1 mg/kg vs FTY-720 0.1 mg/kg) is “equivalent”. For the same molecule, the “EAE clinical score / course of disease” value in experiment [10] is “inhibited the course of disease”. For the same molecule, the “EAE clinical score / development of EAE” value in experiment [10] (setting [12]) was “significantly inhibited”. The “EAE clinical score / development of EAE” value in [10] (setting [13]) is recorded as “significantly inhibited”. In addition, the “progress of EAE disease” value in [10] (oral administration from day 0 of immunization, dosage 250 times that of injection) is “effectively alleviate the progress of the disease”.

As to `O=c1oc2cc(O)ccc2c2ccc(O)cc12` [URA, urolithin A], the “proportion of intact myelin sheath in the spinal cord (MBP)” value in experiment [1] (compared with control mice) is listed as “significantly increased”. In addition, in experiment [1], the “demyelination of white matter of spinal cord (LFB)” value is “significantly relieved” and the “infiltration of spinal cord inflammatory cells (H&E)” value is on record as “significantly relieved”. Also, the “dose dependence of inhibition on IFN-γ” value in experiment [2] (1 μM and 5 μM) is listed as “no dose-dependent inhibition”. Also, in experiment [2] (1 μM), the “polarization of Th17 cells” value is listed as “significantly inhibited” and the “Th1 cells (IFN-γ)” value is “significantly inhibited”. For the same molecule, the “inhibitory effect on Th17 / IL17 at 5 μM compared with the lower concentration” value in [2] is “more significantly”. In addition, in experiment [2] (5 μM), the “polarization of Th17 cells” value is given as “significantly inhibited” and the “Th1 cells (IFN-γ)” value is “significantly inhibited”. Moreover, in experiment [11], the “expression level of IL-17 family-related genes” value was “decreased” and the “expression of Foxp3” value is “promoted the expression of Foxp3 to a certain extent”. Besides, in experiment [10], the “EAE clinical score / course of disease” value was “reduced the clinical scores”. In addition, the “EAE clinical score / development of EAE” value in experiment [10] (setting [12]) is given as “reduced the clinical scores”. Besides, the “EAE clinical score / development of EAE” value in experiment [10] (setting [13]) is “reduced the clinical scores”.

These data come from patent publication US11944601B2, “Applications of ellagic acid in preparation of immunomodulatory medicines for treatment of neuromyelitis optica or immune rejection after skin transplantation” (priority 2022, dated 2024).
